Counter-ions that a name gives are not always drawn. Like-named read-outs stand apart in the source and are kept apart here.
Assays:
[1] = test system: RPTEC/TERT1 cells; format: cell-based, human
Experimental: For high content imaging, NRK-52E and RPTEC/TERT1 cells were cultivated in µ-clear half well area microtiter plates (Greiner) according to the protocol described for the cytotoxicity assay with slight modification. Briefly, NRK-52E cells were seeded at 5,000 cells in 100 µL growth medium per well and were incubated under standard growth conditions for 48 h prior to treatment. RPTEC/TERT1 cells were seeded at 15,000 cells in 100 µL growth medium per well and incubated under standard growth conditions for 7–8 days, until cells reached confluence and started to differentiate. This was indicated by the formation of three-dimensional structures referred to as domes which were identified by regular microscopic inspection of the plates. Only differentiated cell cultures with detectable domes were assayed. Cells of both cell lines were treated with serially diluted Polymyxin B sulfate (concentration range 7.8 to 2,000 µM) for 1, 2, 4, 6, or up to 24 h. The assay was carried out on three biological replicates defined as three different non-consecutive passages of the cell culture. Each biological replicate at each treatment concentration was assayed in triplicate wells per plate.
Following treatment, cells were stained with two different combinations of fluorescent dyes: NRK-52E cells with 50 pg/μL LysoView™ 633 (Biotium) and 1 µM SYTO 16 (Thermo Scientific), respectively, for lysosomes and nuclei; RPTEC/TERT1 cells with 10 nM LysoTracker™ Red (Thermo Scientific) and 10 ng/μL Hoechst 33342 (Merck-Sigma Aldrich), respectively, for lysosomes and nuclei. For each cell line a staining solution was obtained by mixing the lysosomes and nuclei dyes in cell culture medium at the concentrations indicated above. The cells were stained by replenishing the medium for 100 µL of staining solution per well followed by incubation at 37°C and 5% CO2 for 30 min before imaging.
Images were acquired with a fully automated fluorescence confocal Opera™ QEHS system (PerkinElmer, United Kingdom) using a ×40 air UPlanApo objective (Olympus) with 0.85 numerical aperture. NRK-52E cells stained with the dyes SYTO 16 and LysoView™633 were imaged with the laser lines 488 and 635 nm, using a 488/561/635 nm primary dichroic mirror, a 510 nm long pass (LP) detection dichroic mirror, a 540/75 nm band pass (BP) emission filter for SYTO 16 and a 690/50 nm BP emission filter for LysoView™ 633. RPTEC/TERT1 cells stained with the dyes Hoechst 33342 and LysoTracker™Red were imaged with the laser lines 405 and 561 nm, using a 405/561/635 nm primary dichroic mirror, a 580 nm LP detection dichroic mirror, a 450/50 nm BP emission filter for Hoechst 33342 and a 600/40 nm BP emission filter for LysoTracker™Red. To prevent cross talk of the fluorescent signals, each dye was imaged consecutively using the combination of lasers and filters described above. The settings for laser power, exposure time and focal height were kept constant for each cell line across all the experiments. For NRK-52E cells images were acquired at 25 randomly distributed positions in a well at a single focal plane whereas for RPTEC/TERT1 cells due to the development of dome structures images were acquired at 9 random positions at three focal planes each 1 μm apart.
The images were analyzed by custom-made image analysis scripts either with the imaging analysis software Acapella (version 2.8 PerkinElmer) or Columbus (version 2.4.0 PerkinElmer). The scripts included modules for the identification and counting of the cell nuclei to extrapolate the number of cells per well, for definition of a cytoplasm surrounding the nucleus, for identification and counting of the lysosome vesicles within the cytoplasm. Additional cellular parameters included the nuclei size, intensity, the cell size (cell area), the lysosome size (lysosome area), intensity and the number of lysosomes normalized by the cell area to compensate for difference in size of the cells.

[2] = test system: RPTEC/TERT1 and NRK-52E cells; assay: In vitro key event assays (LAMP-1/2, cathepsin D, cell viability) compared across both cell models; format: cell-based, human and rat; conditions: for Effect on cell viability / cytotoxicity (KE3): CellTiter-Glo
Experimental: Cells were plated into 96-well tissue culture plates (10,000 cells per well) and were allowed to grow for 48 h (NRK-52E) respectively 10 d (RPTEC/TERT1) prior to 24 h treatment with model stressors. Stock solution for each compound (2000 µM) was prepared in growth medium and serial dilutions (1:1) were made before each experiment. At the end of the 24 h treatment, cell viability was measured using the CellTiter-Glo® assay (Promega). CellTiter-Glo® reagents and buffer were mixed under light-protected conditions and 100 µL CellTiter-Glo® solution was added directly to each well followed by 2 min incubation on an orbital shaker and 10 min incubation at room temperature in the dark to stabilize the luminescence signal. The suspension was mixed via pipetting and 50 µL were transferred into white 96-well plates (PerkinElmer Inc.). The luminescence signal was measured on a multiplate reader (Mithras LB 940; Berthold). Each assay was performed in three independent experiments carried out in triplicates.
For immunocytochemistry experiments, cells were seeded into 8-well chamber slides (Ibidi) at a density of 140 cells per µL in 300 µL growth medium and were allowed to grow for 48 h (NRK-52E) or 10 d (RPTEC/TERT1) respectively. For treatment, stock solutions (1,000 µM) of compounds dissolved in growth medium were freshly prepared and serial dilutions were made before exposure of cells for 24 h. After treatment, cells were washed twice with 150 µL PBS and fixed with 150 µL 4% paraformaldehyde in 1 x PBS for 10 min at room temperature. After fixation, cells were washed 10 min with 150 µL PBS on an orbital shaker followed by permeabilization with 150 µL 0.2% Triton X-100 in 1 x PBS for 5 min at room temperature on an orbital shaker. The permeabilized cells were washed twice with 1 x PBS (150 µL) for 10 min at room temperature on an orbital shaker and then incubated with 150 µL 5% BSA dissolved in 1 x PBS for 1 h at room temperature to block unspecific binding sites. After blocking, 100 µL primary antibody diluted 1:100 in 1% BSA in 1 x PBS were directly pipetted onto the cells and incubated overnight at 4°C. The following antibodies were employed for NRK-52E cells: Anti-LAMP-1 monoclonal IgG1 kappa mouse antibody (Santa Cruz; sc-20011), anti-Cathepsin D mouse monoclonal IgG2 kappa antibody (Santa Cruz; sc-377124); for RPTEC/TERT1 cells: Anti-LAMP-2 monoclonal mouse antibody (Santa Cruz; sc-18822), anti-Cathepsin D mouse monoclonal IgG2b kappa (Novus Biologicals; NBP1-04278); for both cell lines anti-megalin mouse monoclonal IgG1 antibody (Santa Cruz, sc-515772).
After incubation with primary antibody, cells were washed three times for 15 min with 0.2% Tween in 1 x PBS (150 µL) on an orbital shaker. Cells were incubated for 1 h at room temperature with 100 µL CFL 488-conjugated mouse IgG kappa binding protein (1:50) (m-IgGκ BP-CFL 488; Santa Cruz, sc-516176). After incubation the cells were washed three times for 15 min with 0.2% Tween in 1 x PBS on an orbital shaker and once with 150 µL sterile water. Phalloidin-tetramethylrhodamine B isothiocyanate (TRITC) was used to stain the cytoskeleton and was diluted in 100% methanol to a stock concentration of 0.1 mg/ml and further diluted in 1 x PBS to a working concentration of 0.095 µM. After cells were washed once with 1 x PBS for 10 min at room temperature 150 µL phalloidin-TRITC working solution was added and the cells were incubated on an orbital shaker at room temperature for 60–90 min. After incubation, phalloidin-TRITC solution was aspirated, and the cells were washed once with 1 x PBS. Chamber slides were allowed to dry for 15 min at room temperature. To preserve fluorescence 50–100 µL DAPI mounting medium (Vectashield®; Vectorlab, Biozol) was added to the cells and chamber slides were stored at 4°C in the dark until image acquisition. […]

[3] = RPTEC/TERT1, 24 h, 7.8 to 2000 µM (smaller range for CdCl2 and 4-aminophenol), triplicate experiments, Figure S1
[4] = RPTEC/TERT1 and NRK-52E, 24 h treatment

Molecule | Effect on lysosomal endpoints in high content screening [1, 3] | other results
Polymyxin B nonapeptide | most prominent effects on lysosomal endpoints | Rank order of effects of the 3 polymyxin derivatives across all KEs ([2]; RPTEC/TERT1 and NRK-52E, 24 h): least toxic; Effect on cell viability / cytotoxicity (KE3) [2, 4]: low
C[C@H](Cn1cnc2c(N)ncnc21)OCP(=O)(O)O [tenofovir] | minor changes | –
CN[C@H](CC(C)C)C(=O)N[C@H]1C(=O)N[C@@H](CC(N)=O)C(=O)N[C@H]2C(=O)N[C@H]3C(=O)N[C@H](C(=O)N[C@H](C(=O)O)c4cc(O)cc(O)c4-c4cc3ccc4O)[C@H](O)c3ccc(c(Cl)c3)Oc3cc2cc(c3O[C@@H]2O[C@H](CO)[C@@H](O)[C@H](O)[C@H]2O[C@H]2C[C@](C)(N)[C@H](O)[C@H](C)O2)Oc2ccc(cc2Cl)[C@H]1O [vancomycin] | – | Effect on lysosomal endpoints in high content screening [1]: most prominent effects on lysosomal endpoints
Nc1ccc(O)cc1 [4-aminophenol] | – | Effect on lysosomal endpoints in high content screening [1]: minor changes
CNC(C)C1CCC(N)C(OC2C(N)CC(N)C(OC3OCC(C)(O)C(NC)C3O)C2O)O1 (centres unmarked) [gentamicin] | most prominent effects on lysosomal endpoints | –
CC(C)OC(=O)OCOP(=O)(CO[C@H](C)Cn1cnc2c(N)ncnc21)OCOC(=O)OC(C)C [tenofovir disoproxil fumarate] | minor changes | –
Nc1ccn(C[C@@H](CO)OCP(=O)(O)O)c(=O)n1 [cidofovir] | minor changes | –
[Cl][Cd][Cl] [CdCl2, cadmium chloride] | most prominent effects on lysosomal endpoints | Cytotoxicity compared between RPTEC/TERT1 and NRK-52E cells ([2]; 24 h treatment, cell viability): more toxic in NRK-52E cells; Effect on LAMP-1/2 expression (KE1) ([2]; RPTEC/TERT1 and NRK-52E, 24 h, immunofluorescence image analysis): only minor effects on LAMP1/2 expression; Effect on cell viability / cytotoxicity (KE3) [2, 4]: significant cytotoxicity
N[C@@H](CSC(Cl)=C(Cl)Cl)C(=O)O [TCVC, S-(1,2,2-trichlorovinyl)-L-cysteine] | minor changes | –
